Values of other authors, collected in patent US20030207846A1, “Treatment of pain, inflammation, and inflammation-related disorders with a combination of a cyclooxygenase-2 selective inhibitor and aspirin” (Pharmacia Corporation, priority 2002, published 2003).

Assays:
upper GI tract = conditions: low-dose 75-300 mg/day
[1] = tested on: platelet aggregation and ex-vivo serum-generated thromboxane B2 production; conditions: healthy human subjects

| Structure (SMILES) | inhibition of platelet function (platelet function; 40 mg, conditions of limited compliance) | efficacy as an antiplatelet agent (platelet function; 100-300 mg/day, plain or slow release form) | risk of upper GI tract complications (upper GI tract) | tolerability ([1]; alone or in combination with the aspirin) | effect on the anti-platelet effects of aspirin (inhibition of platelet aggregation and ex-vivo serum-generated thromboxane B2 production) ([1]; rofecoxib 50 mg/day with aspirin 81 mg/day) |
| --- | --- | --- | --- | --- | --- |
| CC(=O)Oc1ccccc1C(=O)O [aspirin, 2-(acetyloxy)benzoic acid] | not sufficient to inhibit platelet function | very effective | increased the risk of upper GI tract complications | – | – |
| CS(=O)(=O)c1ccc(C2=C(c3ccccc3)C(=O)OC2)cc1 [rofecoxib] | – | – | – | well-tolerated | did not alter the anti-platelet effects of the aspirin |
